Tested on: patients with chronic GVHD
Test: Example 2: phase II randomized study of belumosudil (KD025-213) in cGVHD, efficacy and safety;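 further: allogeneic HCT recipients aged ≥12 years with persistent cGVHD after two to five earlier systemic treatment lines, responses judged by site investigators, 12-month analysis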
Conditions: for Cough / Diarrhea / Dyspnea / Fatigue / Headache / Muscle spasms / Nausea / Peripheral edema / Vomiting: All grades; for Hyperglycemia / Hypertension / Pneumonia: Grade ≥3; for ALT increased / AST increased / Bilirubin conjugated increased / Blood alkaline phosphatase increased / GGT increased / Hypoalbuminemia / LFT increased / Transaminases increased: Liver-related AE; for Clinically significant improvement from baseline (LSS), Overall: decrease ≥7 points in LSS score
[1] = 200 mg BID (n = 66), of subjects with organ involved
[2] = 200 mg QD (n = 66), of subjects with organ involved
[3] = Total (N = 132), of subjects with organ involved
[4] = Total, N=132, mITT, listed as Belumosudil

From the text: Concomitant treatment with supportive care therapies for chronic GVHD was permitted. […] Initiation of new systemic chronic GVHD therapy while on study was not permitted.
Eligible subjects were allogeneic hematopoietic cell transplant recipients aged ≥12 years with persistent cGVHD manifestations after receiving 2 to 5 prior systemic lines of therapy. Subjects were required to be receiving stable corticosteroid therapy for 2 weeks prior to screening and to have a Karnofsky or Lansky Performance Status Scale score≥60. Certain concurrent immunosuppressive medications were allowed because drug-drug interactions were not anticipated.
Randomization was stratified (1:1) by cGVHD severity and prior exposure to ibrutinib.
All responses were assessed by the study site investigators. Secondary end points included duration of response (DOR), time to response, changes in LSS summary score, failure-free survival (FFS), corticosteroid dose reductions, and overall survival (OS). DOR was measured from the time of initial PR or CR until documented progression from best response of cGVHD, time from initial response to start of additional systemic cGVHD therapy, or death. The 7-day LSS summary score was calculated based on the developer recommendations and was compared with the score from baseline; an improvement ≥7 points was considered clinically meaningful. […] Relative dose intensity (RDI) was used as a surrogate measure of drug tolerability and was defined as actual dose intensity/planned dose intensity, where dose intensity was defined as the cumulative dose over the duration of exposure (mg/d). Actual dose intensity captured the sum of actual doses received over the duration of exposure and incorporated dose reductions and/or interruptions.
The Hochberg procedure was used for multiplicity adjustment for the primary end point of best ORR. […] CI was calculated using the Clopper-Pearson interval (exact) method.

## CC(C)NC(=O)COc1cccc(-c2nc(Nc3ccc4[nH]ncc4c3)c3ccccc3n2)c1 [belumosudil, 2-{3-[4-(1H-indazol-5-ylamino)-2-quinazolinyl]phenoxy}-N-(propan-2-yl) acetamide]
[1]
  CR, Eyes: (12) %
  CR, Joints and fascia: (20) %
  CR, Lower GI: (57) %
  ORR, Esophagus: (42) %
  ORR, Lower GI: (71) %
  ORR, Lungs: (22) %
  ORR, Mouth: (57) %
  ORR, Skin: (42) %
  ORR, Upper GI: (40) %
  PR, Joints and fascia: (47) %
  PR, Lower GI: (14) %
[2]
  CR, Joints and fascia: (20) %
  CR, Liver: (22) %
  CR, Lungs: (17) %
  CR, Upper GI: (54) %
  ORR, Eyes: (33) %
  ORR, Joints and fascia: (75) %
  ORR, Liver: (33) %
  ORR, Lower GI: (67) %
  ORR, Lungs: (29) %
  ORR, Mouth: (53) %
  ORR, Skin: (33) %
  ORR, Upper GI: (62) %
  PR, Skin: (18) %
200 mg daily
  Clinically significant improvement from baseline (LSS), Nonresponder: (29) %
200 mg daily (n = 66)
  Any AE: (99) %
  Deaths: (12) %
  Drug-related AEs: (74) %
  Drug-related SAEs: (8) %
  Grade ≥3 AEs: (56) %
  Liver-related AEs: (18) %
  SAEs: (41) %
  Cough: (30) %
  Diarrhea: (35) %
  Dyspnea: (32) %
  Fatigue: (46) %
  Headache: (20) %
  Muscle spasms: (20) %
  Nausea: (35) %
  Peripheral edema: (26) %
  Vomiting: (27) %
  Hyperglycemia: (5) %
  Hypertension: (6) %
  Pneumonia: (9) %
  ALT increased: (6) %
  AST increased: (8) %
  Bilirubin conjugated increased: (2) %
  Blood alkaline phosphatase increased: (6) %
  GGT increased: (9) %
  Hypoalbuminemia: (3) %
  LFT increased: (2) %
  Transaminases increased: (2) %
200 mg daily, n=66, mITT
  CS discontinuation: (20) %
  FFS at 6 mo: 73%
  ORR (best, any time): (74) %
  ORR for responses occurring within 6 mo of treatment: (71) %
  ORR for responses occurring within 12 mo of treatment: (74) %
  PR, within 6 mo of treatment: (68) %
  PR, within 12 mo of treatment: (68) %
  Clinically significant improvement from baseline (LSS), Overall: 59%
200 mg twice daily
  Clinically significant improvement from baseline (LSS), Nonresponder: (33) %
  Clinically significant improvement from baseline (LSS), Responder: (71) %
200 mg twice daily (n = 66)
  Any AE: (100) %
  Deaths: (9) %
  Drug-related AEs: (61) %
  Drug-related SAEs: (3) %
  Grade ≥3 AEs: (52) %
  Liver-related AEs: (29) %
  SAEs: (35) %
  Cough: (26) %
  Diarrhea: (32) %
  Dyspnea: (18) %
  Fatigue: (30) %
  Headache: (27) %
  Muscle spasms: (20) %
  Nausea: (27) %
  Peripheral edema: (20) %
  Vomiting: (15) %
  Hyperglycemia: (5) %
  Hypertension: (6) %
  Pneumonia: (6) %
  ALT increased: (11) %
  AST increased: (12) %
  Bilirubin conjugated increased: 0%
  Blood alkaline phosphatase increased: (9) %
  GGT increased: (15) %
  Hypoalbuminemia: (3) %
  LFT increased: 0%
  Transaminases increased: (2) %
200 mg twice daily, n=66, mITT
  FFS at 6 mo: 76%
  ORR (best, any time): (77) %
  PR, within 6 mo of treatment: (71) %
  PR, within 12 mo of treatment: (73) %
  Clinically significant improvement from baseline (LSS), Overall: 62%
Total (N = 132)
  Cough: (28) %
  Diarrhea: (33) %
  Dyspnea: (25) %
  Fatigue: (38) %
  Headache: (24) %
  Muscle spasms: (20) %
  Nausea: (31) %
  Peripheral edema: (23) %
  Vomiting: (21) %
  Hyperglycemia: (5) %
  Hypertension: (6) %
  Pneumonia: (8) %
  ALT increased: (8) %
  AST increased: (10) %
  Bilirubin conjugated increased: (1) %
  Blood alkaline phosphatase increased: (8) %
  GGT increased: (12) %
  Hypoalbuminemia: (3) %
  LFT increased: (1) %
  Transaminases increased: (2) %
  Any AE: (99) %
  Drug-related AEs: (67) %
  Drug-related SAEs: (5) %
  Grade ≥3 AEs: (54) %
  Liver-related AEs: (24) %
  SAEs: (38) %
Total
  Clinically significant improvement from baseline (LSS), Nonresponder: (31) %
  Clinically significant improvement from baseline (LSS), Responder: (70) %
[3]
  CR, Esophagus: (45) %
  CR, Eyes: (14) %
  CR, Joints and fascia: (20) %
  CR, Liver: (31) %
  CR, Lower GI: (62) %
  CR, Lungs: (13) %
  CR, Mouth: (44) %
  CR, Skin: (16) %
  CR, Upper GI: (48) %
  ORR, Esophagus: (45) %
  ORR, Eyes: (42) %
  ORR, Joints and fascia: (71) %
  ORR, Liver: (39) %
  ORR, Lower GI: (69) %
  ORR, Lungs: (26) %
  ORR, Mouth: (56) %
  ORR, Skin: (37) %
  ORR, Upper GI: (52) %
  PR, Esophagus: 0%
  PR, Eyes: (28) %
  PR, Joints and fascia: (51) %
  PR, Liver: (8) %
  PR, Lower GI: (8) %
  PR, Lungs: (13) %
  PR, Mouth: (11) %
  PR, Skin: (21) %
  PR, Upper GI: (4) %
Total (N = 132), six during LTFU
  Deaths: (11) %
Total, N=132, mITT
  CR, within 6 mo of treatment: (2) %
  CR, within 12 mo of treatment: (5) %
  FFS at 6 mo: 75%
  FFS at 12 mo: 56%
  Mean change in CS dose from baseline, Overall: −45%
  Median CS reduction from baseline to greatest reduction: 50%
  ORR (best, any time): (76) %
  ORR for responses occurring within 6 mo of treatment: (72) %
  ORR for responses occurring within 12 mo of treatment: (75) %
  PR, within 6 mo of treatment: (70) %
  PR, within 12 mo of treatment: (71) %
  Proportion with CS reduction: 65%
  Clinically significant improvement from baseline (LSS), Overall: (61) %
[4]
  CS discontinuation: 21) %
  Proportion with CS reduction: (65) %
200 mg daily, n=66, mITT, listed as Belumosudil
  Clinically significant improvement from baseline (LSS), Overall: (59) %
200 mg twice daily, n=66, mITT, listed as Belumosudil
  Clinically significant improvement from baseline (LSS), Overall: (62) %
In vivo
  Grade ≥3 anemia: 3%
  Grade ≥3 cytopenias: < 4%
  Grade ≥3 neutropenia: 2%
  Grade ≥3 thrombocytopenia: 2%
  SAE: pneumonia: 7%
  discontinued because of overall AEs: 21%
  discontinued because of possible drug-related AEs: 12%
  discontinued because of progression of cGVHD: 16%
  discontinued because of progression of underlying malignant disease: 4%
  grade 3 or 4 AE: hyperglycemia: 5%
  grade 3 or 4 AE: hypertension: 6%
  grade 3 or 4 AE: pneumonia: 8%
  liver-related AE: increased GGT: 12%
  subjects who discontinued calcineurin inhibitor (CNI) therapy: 22%
  subjects who received an RDI >95%: Eighty-one
  subjects with >1 SAE: Thirty eight
  subjects with increased liver function tests (LFTs): Twenty-four
mITT, pooled
  organ-specific best ORR, esophagus: 45%
  organ-specific best ORR, eyes: 42%
  organ-specific best ORR, joints/fascia: 71%
  organ-specific best ORR, liver: 39%
  organ-specific best ORR, lower GI tract: 69%
  organ-specific best ORR, lungs: 26%
  organ-specific best ORR, mouth: 55%
  organ-specific best ORR, skin: 37%
  organ-specific best ORR, upper gastrointestinal (GI) tract: 52%
overall
  nonrelapse mortality (NRM) rate: 7%
pooled
  share of responses seen after 6 to 12 months of treatment: 9%
Pooled across arms, mITT
  ORRs observed in all subgroups: 61-85%

Reference: patent publication US12097202B2 (Kadmon Corporation, LLC, priority 2022, dated 2024)
